Experimental data reported in patent US4690926A, “Boxazomycin A and B, new antibiotics containing benzoxazole nucleus” (Bristol-Myers Company, priority 1986, dated 1987).
Converted amounts (≈) assume the structure as drawn. Where a name gives a salt, the structure may show the parent alone.

Assays:
[1] = assay type: physicochemical
[2] = tested on: S. necrophorus A15202; test: Effect of pH on antimicrobial activity (MIC, Table 8); assay type: cell-based; details: Fusobacterium necrophorum
[3] = tested on: Pseudomonas aeruginosa D-113; details: D113
[4] = tested on: S. aureus A20239; assay type: cell-based; details: Staphylococcus aureus, Nutrient agar (Eiken), kanamycin-resistant
[5] = tested on: Peptostreptococcus anaerobius A21905
[6] = tested on: Bacillus subtilis PCI 219; details: PCI219
[7] = Acidity; assay type: physicochemical
[8] = tested on: M. phlei D88; details: Mycolicibacterium phlei
[9] = tested on: S. aureus BX-1633; assay type: cell-based; details: Staphylococcus aureus, BX1633; Nutrient agar (Eiken); lactamase producer
[10] = tested on: E. coli NIHJ; test: Effect of pH on antimicrobial activity (MIC, Table 8); assay type: cell-based; details: Escherichia coli
[11] = tested on: Bacteroides fragilis A22693
[12] = tested on: Clostridium difficile A21675; assay type: cell-based; details: Clostridioides difficile, GA agar (Nissui), clindamycin-resistant
[13] = tested on: B. fragilis A20926; test: Effect of pH on antimicrobial activity (MIC, Table 8); assay type: cell-based; details: Bacteroides fragilis
[14] = tested on: Staphylococcus aureus Smith; test: In vivo efficacy in infected mice; parameters: species or system Staphylococcus aureus; mice; details: for ED50: Staphylococcus aureus, im, 100×LD50 challenge in 5% hog gastric mucin, i.m. just before challenge, read-out: PD50
[15] = tested on: Clostridium perfringens A9635; test: animal or person; assay type: in vivo, Clostridium perfringens; mice
[16] = tested on: Streptococcus pyogenes S-23; details: S23
[17] = tested on: Neisseria gonorrhoeae A15112
[18] = tested on: Propionibacterium acnes A21933; details: Cutibacterium acnes
[19] = tested on: S. pneumoniae IID; details: Streptococcus pneumoniae
[20] = tested on: C. perfringens A9635; test: microbe, parasite or virus in culture; assay type: cell-based; details: Clostridium perfringens
[21] = tested on: K. pneumoniae D11; test: Effect of pH on antimicrobial activity (MIC, Table 8); assay type: cell-based; details: Klebsiella pneumoniae
[22] = tested on: P. acnes A21933; test: as above; assay type: cell-based, Propionibacterium acnes; details: Cutibacterium acnes
[23] = tested on: B. fragilis A22534; assay type: cell-based; details: Bacteroides fragilis, GA agar (Nissui), lactamase producer
[24] = tested on: Klebsiella pneumoniae D-11; details: D11
[25] = tested on: C. perfringens A9635; test: microbe, parasite or virus in culture; assay type: cell-based; details: Clostridium perfringens; remark: listed apart in the source
[26] = tested on: M. smegmatis 607 D46; assay type: cell-based, Mycobacterium smegmatis; details: Mycolicibacterium smegmatis, Nutrient agar (Eiken), kanamycin-resistant
[27] = tested on: Mycobacterium smegmatis 607; details: Mycolicibacterium smegmatis
[28] = Toxicity, i.m.; details: up to a dose of 400 mg/kg (i.m.)
[29] = tested on: B. subtilis PCI 219; test: Effect of pH on antimicrobial activity (MIC, Table 8); assay type: cell-based; details: Bacillus subtilis
[30] = tested on: S. aureus A22421; assay type: cell-based; details: Staphylococcus aureus, Nutrient agar (Eiken), methicillin-resistant
[31] = tested on: Haemophilus influenzae A9729

Cc1cc(O)c(C(N)=O)c2nc(-c3nc(CO)ncc3O)oc12 [Boxazomycin A di-sodium salt]
solubility in water [1]: soluble in water

Cc1cc(O)c(C(N)=O)c2nc(-c3nc(CO)ncc3O)oc12 [Boxazomycin A]
MIC ([2]; A15202, pH 6): 0.4 µg/mL (≈ 1.26 µM)
MIC ([2]; A15202, pH 7): 3.1 µg/mL (≈ 9.8 µM)
MIC [3]: > 100 µg/mL
MIC [4]: 0.4 µg/mL (≈ 1.26 µM)
MIC [5]: 3.1 µg/mL (≈ 9.8 µM)
MIC [6]: 3.1 µg/mL (≈ 9.8 µM)
acidity [7]: weakly acidic
MIC [8]: 0.8 µg/mL (≈ 2.53 µM)
MIC [9]: 0.8 µg/mL (≈ 2.53 µM)
MIC ([10]; pH 6): > 100 µg/mL
MIC ([10]; pH 7): > 100 µg/mL
MIC [11]: 6.3 µg/mL (≈ 19.9 µM)
MIC [12]: 3.1 µg/mL (≈ 9.8 µM)
solubility in alkaline water and dimethylformamide [1]: readily soluble
solubility in ethyl acetate, chloroform, benzene and n-hexane [1]: practically insoluble
solubility in water, methanol, ethanol and acetone [1]: slightly soluble
MIC ([13]; A20926, pH 6): 0.05 µg/mL (≈ 0.158 µM)
MIC ([13]; A20926, pH 7): 3.1 µg/mL (≈ 9.8 µM)
ED50 [14]: 400 mg/kg
in vivo efficacy relative to in vitro activity ([14]; i.m.): lower than that expected from its in vitro activity
protective effect ([14]; i.m.): protective effect in mice against both infections
ED50 ([15]; Clostridium perfringens, A9635, in Mus musculus, im, read-out: PD50): 220 mg/kg
in vivo efficacy relative to in vitro activity ([15]; mice, i.m.): lower than that expected from its in vitro activity
protective effect ([15]; mice, i.m.): protective effect in mice against both infections
MIC [16]: 3.1 µg/mL (≈ 9.8 µM)
MIC [17]: > 100 µg/mL
MIC [18]: 3.1 µg/mL (≈ 9.8 µM)
MIC [19]: 3.1 µg/mL (≈ 9.8 µM)
MIC ([20]; A9635, pH 6): 0.2 µg/mL (≈ 0.632 µM)
MIC ([20]; A9635, pH 7): 3.1 µg/mL (≈ 9.8 µM)
MIC ([21]; D11, pH 6): > 100 µg/mL
MIC ([21]; D11, pH 7): > 100 µg/mL
MIC ([22]; A21933, pH 6): 0.4 µg/mL (≈ 1.26 µM)
MIC ([22]; A21933, pH 7): 6.3 µg/mL (≈ 19.9 µM)
MIC [23]: 3.1 µg/mL (≈ 9.8 µM)
MIC [24]: > 100 µg/mL
MIC [25]: 3.1 µg/mL (≈ 9.8 µM)
MIC [26]: 1.6 µg/mL (≈ 5.06 µM)
MIC [27]: 1.6 µg/mL (≈ 5.06 µM)
toxic symptoms [28]: did not show any toxic symptoms up to a dose of 400 mg/kg (i.m.)
MIC ([29]; PCI219, pH 6): 0.8 µg/mL (≈ 2.53 µM)
MIC ([29]; PCI219, pH 7): 6.3 µg/mL (≈ 19.9 µM)
MIC [30]: 0.8 µg/mL (≈ 2.53 µM)
MIC [31]: > 100 µg/mL

Cc1ncc(O)c(-c2nc3c(C(N)=O)c(O)cc(C)c3o2)n1 [Boxazomycin B]
MIC ([2]; A15202, pH 6): 0.4 µg/mL (≈ 1.33 µM)
MIC ([2]; A15202, pH 7): 6.3 µg/mL (≈ 21 µM)
MIC [3]: > 100 µg/mL
MIC [4]: 0.8 µg/mL (≈ 2.66 µM)
MIC [5]: 6.3 µg/mL (≈ 21 µM)
MIC [6]: 1.6 µg/mL (≈ 5.33 µM)
acidity [7]: weakly acidic
MIC [8]: 1.6 µg/mL (≈ 5.33 µM)
MIC [9]: 0.8 µg/mL (≈ 2.66 µM)
MIC ([10]; pH 6): > 100 µg/mL
MIC ([10]; pH 7): > 100 µg/mL
MIC [11]: 12.5 µg/mL (≈ 41.6 µM)
MIC [12]: 6.3 µg/mL (≈ 21 µM)
solubility in alkaline water and dimethylformamide [1]: readily soluble
solubility in ethyl acetate, chloroform, benzene and n-hexane [1]: practically insoluble
solubility in water, methanol, ethanol and acetone [1]: slightly soluble
MIC ([13]; A20926, pH 6): 0.1 µg/mL (≈ 0.333 µM)
MIC ([13]; A20926, pH 7): 3.1 µg/mL (≈ 10.3 µM)
MIC [16]: 12.5 µg/mL (≈ 41.6 µM)
MIC [17]: > 100 µg/mL
MIC [18]: 6.3 µg/mL (≈ 21 µM)
MIC [19]: 25 µg/mL (≈ 83.3 µM)
MIC ([20]; A9635, pH 6): 0.4 µg/mL (≈ 1.33 µM)
MIC ([20]; A9635, pH 7): 6.3 µg/mL (≈ 21 µM)
MIC ([21]; D11, pH 6): > 100 µg/mL
MIC ([21]; D11, pH 7): > 100 µg/mL
MIC ([22]; A21933, pH 6): 0.2 µg/mL (≈ 0.666 µM)
MIC ([22]; A21933, pH 7): 6.3 µg/mL (≈ 21 µM)
MIC [23]: 12.5 µg/mL (≈ 41.6 µM)
MIC [24]: > 100 µg/mL
MIC [25]: 12.5 µg/mL (≈ 41.6 µM)
MIC [26]: 3.1 µg/mL (≈ 10.3 µM)
MIC [27]: 3.1 µg/mL (≈ 10.3 µM)
MIC ([29]; PCI219, pH 6): 0.2 µg/mL (≈ 0.666 µM)
MIC ([29]; PCI219, pH 7): 1.6 µg/mL (≈ 5.33 µM)
MIC [30]: 0.8 µg/mL (≈ 2.66 µM)
MIC [31]: > 100 µg/mL

NC[C@H]1O[C@H](O[C@H]2[C@H](O)[C@@H](O[C@H]3O[C@H](CO)[C@@H](O)[C@H](N)[C@H]3O)[C@H](N)C[C@@H]2N)[C@H](O)[C@@H](O)[C@@H]1O [Kanamycin, kanamycin, reference compound]
MIC [3]: 25 µg/mL (≈ 51.6 µM)
MIC [4]: > 100 µg/mL
MIC [5]: > 50 µg/mL
MIC [6]: 0.2 µg/mL (≈ 0.413 µM)
MIC [8]: 1.6 µg/mL (≈ 3.3 µM)
MIC [9]: 0.8 µg/mL (≈ 1.65 µM)
MIC [11]: 50 µg/mL (≈ 103 µM)
MIC [12]: > 50 µg/mL
ED50 [14]: 1.4 mg/kg
MIC [16]: 25 µg/mL (≈ 51.6 µM)
MIC [17]: 0.4 µg/mL (≈ 0.826 µM)
MIC [18]: > 50 µg/mL
MIC [19]: 25 µg/mL (≈ 51.6 µM)
MIC [23]: 50 µg/mL (≈ 103 µM)
MIC [24]: 0.4 µg/mL (≈ 0.826 µM)
MIC [25]: > 50 µg/mL
MIC [26]: > 100 µg/mL
MIC [27]: 0.8 µg/mL (≈ 1.65 µM)
MIC [30]: 0.8 µg/mL (≈ 1.65 µM)
MIC [31]: 0.4 µg/mL (≈ 0.826 µM)
